Source: publication PMC9743148 (Annals of oncology : official journal of the European …, 2020)

Tested on: patients with advanced solid tumors
Assay: Treatment-emergent adverse events
Format: in vivo, human
[1] = Combined t.i.w. cohorts (n = 42)

For `C=CC(=O)N1CC[C@H](n2nc(C#Cc3cc(OC)cc(OC)c3)c3c(N)ncnc32)C1` [futibatinib], the “AST increased TEAE, Grade 1” value [1] was 1 (2) n (%), the “AST increased TEAE, Grade 2” value [1] was 3 (7) n (%) and the “AST increased TEAE, Grade 3” value [1] was 0 (0) n (%). For the same molecule, the “AST increased TEAE, Grade 4” value [1] was 0 (0) n (%), the “Abdominal pain TEAE, Any grade” value [1] was 8 (19) n (%) and the “Abdominal pain TEAE, Grade 1” value [1] was 4 (10) n (%). For the same molecule, the “Abdominal pain TEAE, Grade 2” value [1] was 2 (5) n (%), the “Abdominal pain TEAE, Grade 3” value [1] was 2 (5) n (%) and the “Abdominal pain TEAE, Grade 4” value [1] was 0 (0) n (%). For the same molecule, the “Alopecia TEAE, Any grade” value [1] was 4 (10) n (%), the “Alopecia TEAE, Grade 1” value [1] was 4 (10) n (%) and the “Alopecia TEAE, Grade 2” value [1] was 0 (0) n (%). For the same molecule, the “Alopecia TEAE, Grade 3” value [1] was 0 (0) n (%), the “Alopecia TEAE, Grade 4” value [1] was 0 (0) n (%) and the “Anemia TEAE, Any grade” value [1] was 13 (31) n (%). The “Anemia TEAE, Grade 1” value [1] was 2 (5) n (%), the “Anemia TEAE, Grade 2” value [1] was 8 (19) n (%) and the “Anemia TEAE, Grade 3” value [1] was 3 (7) n (%). For the same molecule, the “Anemia TEAE, Grade 4” value [1] was 0 (0) n (%), the “Any TEAE, Any grade” value [1] was 42 (100) n (%) and the “Any TEAE, Grade 1” value [1] was 3 (7) n (%). The “Any TEAE, Grade 2” value [1] was 14 (33) n (%), the “Any TEAE, Grade 3” value [1] was 20 (48) n (%) and the “Any TEAE, Grade 4” value [1] was 2 (5) n (%). For the same molecule, the “Any treatment-related AE, Any grade” value [1] was 37 (88) n (%), the “Any treatment-related AE, Grade 1” value [1] was 12 (29) n (%) and the “Any treatment-related AE, Grade 2” value [1] was 14 (33) n (%). For the same molecule, the “Any treatment-related AE, Grade 3” value [1] was 10 (24) n (%), the “Any treatment-related AE, Grade 4” value [1] was 1 (2) n (%) and the “Asthenia TEAE, Any grade” value [1] was 9 (21) n (%). For the same molecule, the “Asthenia TEAE, Grade 1” value [1] was 5 (12) n (%), the “Asthenia TEAE, Grade 2” value [1] was 4 (10) n (%) and the “Asthenia TEAE, Grade 3” value [1] was 0 (0) n (%). For the same molecule, the “Asthenia TEAE, Grade 4” value [1] was 0 (0) n (%), the “Back pain TEAE, Any grade” value [1] was 3 (7) n (%) and the “Back pain TEAE, Grade 1” value [1] was 2 (5) n (%). The “Back pain TEAE, Grade 2” value [1] was 1 (2) n (%), the “Back pain TEAE, Grade 3” value [1] was 0 (0) n (%) and the “Back pain TEAE, Grade 4” value [1] was 0 (0) n (%). For the same molecule, the “Constipation TEAE, Any grade” value [1] was 11 (26) n (%), the “Constipation TEAE, Grade 1” value [1] was 10 (24) n (%) and the “Constipation TEAE, Grade 2” value [1] was 1 (2) n (%). For the same molecule, the “Constipation TEAE, Grade 3” value [1] was 0 (0) n (%), the “Constipation TEAE, Grade 4” value [1] was 0 (0) n (%) and the “Cough TEAE, Any grade” value [1] was 2 (5) n (%). The “Cough TEAE, Grade 1” value [1] was 2 (5) n (%), the “Cough TEAE, Grade 2” value [1] was 0 (0) n (%) and the “Cough TEAE, Grade 3” value [1] was 0 (0) n (%). The “Cough TEAE, Grade 4” value [1] was 0 (0) n (%), the “Decreased appetite TEAE, Any grade” value [1] was 9 (21) n (%) and the “Decreased appetite TEAE, Grade 1” value [1] was 5 (12) n (%). For the same molecule, the “Decreased appetite TEAE, Grade 2” value [1] was 3 (7) n (%), the “Decreased appetite TEAE, Grade 3” value [1] was 1 (2) n (%) and the “Decreased appetite TEAE, Grade 4” value [1] was 0 (0) n (%). For the same molecule, the “Diarrhea TEAE, Any grade” value [1] was 17 (40) n (%), the “Diarrhea TEAE, Grade 1” value [1] was 12 (29) n (%) and the “Diarrhea TEAE, Grade 2” value [1] was 5 (12) n (%). The “Diarrhea TEAE, Grade 3” value [1] was 0 (0) n (%), the “Diarrhea TEAE, Grade 4” value [1] was 0 (0) n (%) and the “Dose reduction because of TEAE, Any grade” value [1] was 4 (10) n (%). For the same molecule, the “Dose reduction because of TEAE, Grade 1” value [1] was 0 (0) n (%), the “Dose reduction because of TEAE, Grade 2” value [1] was 3 (7) n (%) and the “Dose reduction because of TEAE, Grade 3” value [1] was 1 (2) n (%). For the same molecule, the “Dose reduction because of TEAE, Grade 4” value [1] was 0 (0) n (%), the “Dosing delay/interruption because of TEAE, Any grade” value [1] was 21 (50) n (%) and the “Dosing delay/interruption because of TEAE, Grade 1” value [1] was 0 (0) n (%). For the same molecule, the “Dosing delay/interruption because of TEAE, Grade 2” value [1] was 6 (14) n (%), the “Dosing delay/interruption because of TEAE, Grade 3” value [1] was 14 (33) n (%) and the “Dosing delay/interruption because of TEAE, Grade 4” value [1] was 1 (2) n (%). For the same molecule, the “Dry eye TEAE, Any grade” value [1] was 2 (5) n (%), the “Dry eye TEAE, Grade 1” value [1] was 2 (5) n (%) and the “Dry eye TEAE, Grade 2” value [1] was 0 (0) n (%). For the same molecule, the “Dry eye TEAE, Grade 3” value [1] was 0 (0) n (%), the “Dry eye TEAE, Grade 4” value [1] was 0 (0) n (%) and the “Dry mouth TEAE, Any grade” value [1] was 14 (33) n (%). The “Dry mouth TEAE, Grade 1” value [1] was 13 (31) n (%), the “Dry mouth TEAE, Grade 2” value [1] was 1 (2) n (%) and the “Dry mouth TEAE, Grade 3” value [1] was 0 (0) n (%). For the same molecule, the “Dry mouth TEAE, Grade 4” value [1] was 0 (0) n (%), the “Dry skin TEAE, Any grade” value [1] was 7 (17) n (%) and the “Dry skin TEAE, Grade 1” value [1] was 6 (14) n (%). The “Dry skin TEAE, Grade 2” value [1] was 1 (2) n (%), the “Dry skin TEAE, Grade 3” value [1] was 0 (0) n (%) and the “Dry skin TEAE, Grade 4” value [1] was 0 (0) n (%). The “Fatigue TEAE, Any grade” value [1] was 7 (17) n (%), the “Fatigue TEAE, Grade 1” value [1] was 2 (5) n (%) and the “Fatigue TEAE, Grade 2” value [1] was 5 (12) n (%). For the same molecule, the “Fatigue TEAE, Grade 3” value [1] was 0 (0) n (%), the “Fatigue TEAE, Grade 4” value [1] was 0 (0) n (%) and the “Headache TEAE, Any grade” value [1] was 7 (17) n (%). The “Headache TEAE, Grade 1” value [1] was 6 (14) n (%), the “Headache TEAE, Grade 2” value [1] was 1 (2) n (%) and the “Headache TEAE, Grade 3” value [1] was 0 (0) n (%). For the same molecule, the “Headache TEAE, Grade 4” value [1] was 0 (0) n (%), the “Hypercalcemia TEAE, Any grade” value [1] was 5 (12) n (%) and the “Hypercalcemia TEAE, Grade 1” value [1] was 1 (2) n (%). For the same molecule, the “Hypercalcemia TEAE, Grade 2” value [1] was 1 (2) n (%), the “Hypercalcemia TEAE, Grade 3” value [1] was 3 (7) n (%) and the “Hypercalcemia TEAE, Grade 4” value [1] was 0 (0) n (%). For the same molecule, the “Hyperphosphatemia TEAE, Any grade” value [1] was 21 (50) n (%), the “Hyperphosphatemia TEAE, Grade 1” value [1] was 7 (17) n (%) and the “Hyperphosphatemia TEAE, Grade 2” value [1] was 11 (26) n (%). The “Hyperphosphatemia TEAE, Grade 4” value [1] was 0 (0) n (%), the “Hyperphosphatemia TEAE, grade 3” value [1] was 3 (7) n (%) and the “Hypomagnesemia TEAE, Any grade” value [1] was 5 (12) n (%). The “Hypomagnesemia TEAE, Grade 1” value [1] was 4 (10) n (%), the “Hypomagnesemia TEAE, Grade 2” value [1] was 1 (2) n (%) and the “Hypomagnesemia TEAE, Grade 3” value [1] was 0 (0) n (%). The “Hypomagnesemia TEAE, Grade 4” value [1] was 0 (0) n (%), the “Hyponatremia TEAE, Any grade” value [1] was 5 (12) n (%) and the “Hyponatremia TEAE, Grade 1” value [1] was 1 (2) n (%). The “Hyponatremia TEAE, Grade 2” value [1] was 0 (0) n (%), the “Hyponatremia TEAE, Grade 3” value [1] was 4 (10) n (%) and the “Hyponatremia TEAE, Grade 4” value [1] was 0 (0) n (%). The “Nausea TEAE, Any grade” value [1] was 12 (29) n (%), the “Nausea TEAE, Grade 1” value [1] was 11 (26) n (%) and the “Nausea TEAE, Grade 2” value [1] was 0 (0) n (%). For the same molecule, the “Nausea TEAE, Grade 3” value [1] was 1 (2) n (%), the “Nausea TEAE, Grade 4” value [1] was 0 (0) n (%) and the “Onycholysis TEAE, Any grade” value [1] was 5 (12) n (%). For the same molecule, the “Onycholysis TEAE, Grade 1” value [1] was 4 (10) n (%), the “Onycholysis TEAE, Grade 2” value [1] was 1 (2) n (%) and the “Onycholysis TEAE, Grade 3” value [1] was 0 (0) n (%). For the same molecule, the “Onycholysis TEAE, Grade 4” value [1] was 0 (0) n (%), the “Pyrexia TEAE, Any grade” value [1] was 5 (12) n (%) and the “Pyrexia TEAE, Grade 1” value [1] was 4 (10) n (%). For the same molecule, the “Pyrexia TEAE, Grade 2” value [1] was 0 (0) n (%), the “Pyrexia TEAE, Grade 3” value [1] was 1 (2) n (%) and the “Pyrexia TEAE, Grade 4” value [1] was 0 (0) n (%). The “Rash TEAE, Any grade” value [1] was 5 (12) n (%), the “Rash TEAE, Grade 1” value [1] was 5 (12) n (%) and the “Rash TEAE, Grade 2” value [1] was 0 (0) n (%). The “Rash TEAE, Grade 3” value [1] was 0 (0) n (%), the “Rash TEAE, Grade 4” value [1] was 0 (0) n (%) and the “Stomatitis TEAE, Any grade” value [1] was 5 (12) n (%). For the same molecule, the “Stomatitis TEAE, Grade 1” value [1] was 2 (5) n (%), the “Stomatitis TEAE, Grade 2” value [1] was 1 (2) n (%) and the “Stomatitis TEAE, Grade 3” value [1] was 2 (5) n (%). The “Stomatitis TEAE, Grade 4” value [1] was 0 (0) n (%), the “Treatment discontinuation because of TEAE, Any grade” value [1] was 1 (2) n (%) and the “Treatment discontinuation because of TEAE, Grade 1” value [1] was 0 (0) n (%). For the same molecule, the “Treatment discontinuation because of TEAE, Grade 2” value [1] was 0 (0) n (%), the “Treatment discontinuation because of TEAE, Grade 3” value [1] was 1 (2) n (%) and the “Treatment discontinuation because of TEAE, Grade 4” value [1] was 0 (0) n (%). The “Urinary tract infection TEAE, Any grade” value [1] was 5 (12) n (%), the “Urinary tract infection TEAE, Grade 1” value [1] was 0 (0) n (%) and the “Urinary tract infection TEAE, Grade 2” value [1] was 4 (10) n (%). For the same molecule, the “Urinary tract infection TEAE, Grade 3” value [1] was 1 (2) n (%), the “Urinary tract infection TEAE, Grade 4” value [1] was 0 (0) n (%) and the “Vomiting TEAE, Any grade” value [1] was 9 (21) n (%). For the same molecule, the “Vomiting TEAE, Grade 1” value [1] was 5 (12) n (%), the “Vomiting TEAE, Grade 2” value [1] was 3 (7) n (%) and the “Vomiting TEAE, Grade 3” value [1] was 1 (2) n (%). The “Vomiting TEAE, Grade 4” value [1] was 0 (0) n (%), the “Hyperphosphatemia TEAE, grade 3” value (combined q.d. cohorts) was 16% and the “Hyperphosphatemia TEAE, any grade” value (combined q.d. cohorts, 30 of 44 patients) was 68%. For the same molecule, the “Hyperphosphatemia TEAE, grade 3” value (combined t.i.w. cohorts) was 7%, the “Hyperphosphatemia TEAE, any grade” value (combined t.i.w. cohorts, 21 of 42 patients) was 50% and the “Patients with grade ≥3 TEAEs” value (overall population) was > 50%. The “Grade 3 hyponatremia TEAE” value (overall population (n = 86)) was 7%, the “Hyperphosphatemia leading to dose reductions” value (overall population (n = 86)) was 6% and the “Hyperphosphatemia leading to dosing interruptions” value (overall population (n = 86)) was 17%. For the same molecule, the “Patients with grade 3 TEAEs” value (overall population (n = 86)) was 48%, the “Patients with grade 4 TEAEs” value (overall population (n = 86)) was 6% and the “Patients with treatment-related grade 3 AEs” value (overall population (n = 86)) was 30%. The “TEAEs leading to treatment discontinuations” value (overall population (n = 86)) was 3% and the Treatment-related deaths (overall population (n = 86)) was “No treatment-related deaths”.
